Assay results taken from patent US20250302815A1, “PROTEIN TYROSINE PHOSPHATASE TARGETING LIGANDS” (CALICO LIFE SCIENCES LLC, priority 2021, published 2025).

Columns and labels:
[1] = target: T1, PTPN2 (B16F10.4 cells) (Mus musculus, UniProt Q06180); assay: HiBiT Degradation B16F10.4 PTPN2; format: cell-based; conditions: 24.0 hours
T1 construct: HiBiT; host or cells: B16F10.4
T1 sequence (Q06180 1-406): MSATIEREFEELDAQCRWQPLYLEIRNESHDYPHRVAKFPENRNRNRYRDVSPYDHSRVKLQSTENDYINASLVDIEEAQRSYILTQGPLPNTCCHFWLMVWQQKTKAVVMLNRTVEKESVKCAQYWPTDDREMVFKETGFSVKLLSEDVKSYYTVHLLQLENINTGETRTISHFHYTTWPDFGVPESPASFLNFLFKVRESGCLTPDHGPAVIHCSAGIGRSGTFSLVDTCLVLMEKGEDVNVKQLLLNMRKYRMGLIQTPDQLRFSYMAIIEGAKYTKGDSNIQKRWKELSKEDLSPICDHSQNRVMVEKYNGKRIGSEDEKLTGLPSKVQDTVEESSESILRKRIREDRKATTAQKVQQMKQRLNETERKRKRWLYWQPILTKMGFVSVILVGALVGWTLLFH

[2] = target: T2, PTPN2 (HiBIT-PTPN2 in 293T.109 cells) (Homo sapiens, UniProt P17706); assay: HiBiT Degradation 293T.109 PTPN2 (Nano-Glo HiBiT Lytic Assay); format: cell-based; conditions: 24.0 hours
T2 construct: expressed in transfected cells; host or cells: 293T.109 (293T WT from ATCC)
T2 sequence (P17706 1-415): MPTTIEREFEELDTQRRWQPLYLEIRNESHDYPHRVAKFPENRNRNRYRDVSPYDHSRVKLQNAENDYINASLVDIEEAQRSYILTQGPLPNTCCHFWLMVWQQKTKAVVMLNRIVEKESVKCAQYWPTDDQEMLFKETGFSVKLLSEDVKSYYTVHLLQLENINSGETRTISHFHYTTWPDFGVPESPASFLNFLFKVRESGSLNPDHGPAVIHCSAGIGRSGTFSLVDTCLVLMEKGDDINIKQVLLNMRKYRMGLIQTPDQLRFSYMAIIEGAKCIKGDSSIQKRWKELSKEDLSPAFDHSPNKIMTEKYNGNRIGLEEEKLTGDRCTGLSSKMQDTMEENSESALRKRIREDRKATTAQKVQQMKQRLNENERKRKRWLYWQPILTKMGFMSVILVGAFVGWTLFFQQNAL
Method in brief: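 293T.109 cells with ectopic N-terminal HiBiT-tagged PTPN2 (5000/well) exposed to compounds for 24 h at 37 °C, 5% CO2; 11-point half-log titration from 10 μM top, duplicates. Remaining HiBiT-PTPN2 read as luminescence with Nano-Glo HiBiT lytic reagent, normalised to untreated cells (0%) and reagent-free wells.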

Row | Compound | DC50 [1] [nM] | DC50 [2] [nM]
1 | Cn1c(=O)n(C2CCC(=O)NC2=O)c2ccc(N3CC(OCC(=O)Nc4cccc(CS(=O)(=O)N5CC[C@H](Nc6cccc(-c7sc(C(=O)O)c(OCC(=O)O)c7Cl)c6)CC5(C)C)c4)C3)cc21 (stereo partly drawn) [Example 107, 3-(carboxymethoxy)-4-chloro-5-[3-[[(4S)-1-[[3-[[2-[1-[1-(2,6-dioxo-3-piperidyl)-3-methyl-2-oxo-benzimidazol-5-yl]azetidin-3-yl]oxyacetyl]amino]phenyl]methylsulfonyl]-2,2-dimethyl-4-piperidyl]amino]phenyl]thiophene-2-carboxylic acid] | 200 to 1000 | 50 to 200
2 | CC1(C)C[C@@H](Nc2cccc(-c3sc(C(=O)O)c(OCC(=O)O)c3Cl)c2)CCN1S(=O)(=O)Cc1cccc(NC(=O)N2CCC(Oc3cccc4c3CN(C3CCC(=O)NC3=O)C4=O)CC2)c1 (some centres unmarked) [Example 72] | 50 to 200 | 50 to 200
3 | Cn1c(=O)n(C2CCC(=O)NC2=O)c2ccc(C3CCN(CC(=O)Nc4cccc(CS(=O)(=O)N5CCC(Nc6cccc(-c7sc(C(=O)O)c(OCC(=O)O)c7Cl)c6)CC5(C)C)c4)CC3)cc21 [Example 69, 3-(carboxymethoxy)-4-chloro-5-[3-[[(4S)-1-[[3-[2-[4-[1-(2,6-dioxo-3-piperidyl)-3-methyl-2-oxo-benzimidazol-S-yl]-1-piperidyl]acetyl]amino]phenyl]methylsulfonyl]-2,2-dimethyl-4-piperidyl]amino]phenyl]thiophene-2-carboxylic acid] | 50 to 200 | < 50
4 | CC1(C)C[C@@H](Nc2cccc(-c3sc(C(=O)O)c(OCC(=O)O)c3Cl)c2)CCN1S(=O)(=O)Cc1cccc(NC(=O)C2CCN(C(=O)CNc3ccc4c(c3)C(=O)N(C3CCC(=O)NC3=O)C4=O)CC2)c1 (stereo partly drawn) [Example 43, 3-(carboxymethoxy)-4-chloro-5-[3-[[(4S)-1-[[3-[[1-[2-[[2-(2,6-dioxo-3-piperidyl)-1,3-dioxo-isoindolin-5-yl]amino]acetyl]piperidine-4-carbonyl]amino]phenyl]methylsulfonyl]-2,2-dimethyl-4-piperidyl]amino]phenyl]thiophene-2-carboxylic acid] | ≥ 1000 | 50 to 200
5 | Cn1c(=O)n(C2CCC(=O)NC2=O)c2ccc(Nc3ccc(C(=O)Nc4cccc(CS(=O)(=O)N5CC[C@H](Nc6cccc(-c7sc(C(=O)O)c(OCC(=O)O)c7Cl)c6)CC5(C)C)c4)cc3)cc21 (some centres unmarked) [Example 144] | 50 to 200 | < 50
6 | CC1(C)C[C@@H](Nc2cccc(-c3sc(C(=O)O)c(OCC(=O)O)c3Cl)c2)CCN1S(=O)(=O)Cc1cccc(NC(=O)N2CCN(C(=O)CCc3cccc4c3CN(C3CCC(=O)NC3=O)C4=O)CC2)c1 (some centres unmarked) [Example 64] | 200 to 1000 | 200 to 1000
7 | Cn1c(=O)n(C2CCC(=O)NC2=O)c2ccc(N3CCC(OC(=O)Nc4cccc(CS(=O)(=O)N5CC[C@H](Nc6cccc(-c7sc(C(=O)O)c(OCC(=O)O)c7Cl)c6)CC5(C)C)c4)CC3)cc21 (stereo partly drawn) [Example 117, 3-(carboxymethoxy)-4-chloro-5-[3-[[(4S)-1-[[3-[[1-[1-(2,6-dioxo-3-piperidyl)-3-methyl-2-oxo-benzimidazol-5-yl]-4-piperidyl]oxycarbonylamino]phenyl]methylsulfonyl]-2,2-dimethyl-4-piperidyl]amino]phenyl]thiophene-2-carboxylic acid] | 50 to 200 | 50 to 200
8 | CC1(C)C[C@@H](Nc2cccc(-c3sc(C(=O)O)c(OCC(=O)O)c3Cl)c2)CCN1S(=O)(=O)Cc1cccc(NC(=O)N2CCC(c3ccc4c5c(cccc35)N(C3CCC(=O)NC3=O)C4=O)CC2)c1 (stereo partly drawn) [Example 205, 3-(carboxymethoxy)-4-chloro-5-[3-[[(4S)-1-[[3-[[4-[1-(2,6-dioxo-3-piperidyl)-2-oxo-benzo[cd]indol-S-yl]piperidine-1-carbonyl]amino]phenyl]methylsulfonyl]-2,2-dimethyl-4-piperidyl]amino]phenyl]thiophene-2-carboxylic acid] | 50 to 200 | 50 to 200
9 | CC(C)n1c(=O)n(C2CCC(=O)NC2=O)c2ccc(C3CCN(C(=O)Nc4cccc(CS(=O)(=O)N5CC[C@H](Nc6cccc(-c7sc(C(=O)O)c(OCC(=O)O)c7Cl)c6)CC5(C)C)c4)CC3)cc21 (some centres unmarked) [Example 137] | 50 to 200 | 50 to 200
10 | O=C(O)COc1c(C(=O)O)sc(-c2cccc(NC3CCN(S(=O)(=O)Cc4cccc(NC(=O)CCOCCOCCOCCCc5ccc6c(c5)CN(C5CCC(=O)NC5=O)C6=O)c4)CC3)c2)c1Cl (centres unmarked) [Example 19, 3-(carboxymethoxy)-4-chloro-5-(3-((1-((3-(3-(2-(2-(3-(2-(2,6-dioxopiperidin-3-yl)-1-oxoisoindolin-5-yl)propoxy)ethoxy)ethoxy)propanamido)benzyl)sulfonyl)piperidin-4-yl)amino)phenyl)thiophene-2-carboxylic acid] | 200 to 1000 | 200 to 1000
11 | CC1(C)C[C@@H](Nc2cccc(-c3sc(C(=O)O)c(OCC(=O)O)c3Cl)c2)CCN1S(=O)(=O)Cc1cccc(NC(=O)N2CCC(c3ccc4c(c3)C3(CC3)C(=O)N4C3CCC(=O)NC3=O)CC2)c1 (some centres unmarked) [Example 150] | 50 to 200 | 50 to 200
12 | CC1(C)C[C@H](Oc2cccc(-c3sc(C(=O)O)c(OCC(=O)O)c3Cl)c2)CCN1S(=O)(=O)Cc1cccc(NC(=O)N2CCC(c3ccc4c5c(cccc35)C(=O)N4C3CCC(=O)NC3=O)CC2)c1 (stereo partly drawn) [Example 227, 3-(carboxymethoxy)-4-chloro-5-(3-(((4R)-1-((3-(4-(1-(2,6-dioxopiperidin-3-yl)-2-oxo-1,2-dihydrobenzo[cd]indol-6-yl)piperidine-1-carboxamido)benzyl)sulfonyl)-2,2-dimethylpiperidin-4-yl)oxy)phenyl)thiophene-2-carboxylic acid] | 50 to 200 | 200 to 1000
13 | O=C(O)COc1c(C(=O)O)sc(-c2cccc(NC3CCN(S(=O)(=O)Cc4cccc(NC(=O)CCc5ccc6c(c5)CN(C5CCC(=O)NC5=O)C6=O)c4)CC3)c2)c1Cl (centres unmarked) [Example 47] | 200 to 1000 | 200 to 1000
14 | CC1(C)C[C@@H](Nc2cccc(-c3sc(C(=O)O)c(OCC(=O)O)c3Cl)c2F)CCN1S(=O)(=O)Cc1ccc(F)c(NC(=O)C2CN(C(=O)CNc3cccc4c3CN([C@H]3CCC(=O)NC3=O)C4=O)C2)c1 (single isomer, unassigned) [Example 148b] | 200 to 1000 | < 50
15 | CC1(C)C[C@@H](Nc2cccc(-c3sc(C(=O)O)c(OCC(=O)O)c3Cl)c2)CCN1S(=O)(=O)Cc1ccc(F)c(NC(=O)N2CCC(c3ccc4c5c(cccc35)C(=O)N4C3CCC(=O)NC3=O)CC2)c1 (some centres unmarked) [Example 126] | < 50 | 50 to 200
16 | CC1(C)C[C@H](Nc2cccc(-c3sc(C(=O)O)c(OCC(=O)O)c3Cl)c2)CCN1S(=O)(=O)Cc1cccc(NC(=O)N2CCC(c3ccc4c(c3)n(C3COC3)c(=O)n4C3CCC(=O)NC3=O)CC2)c1 (stereo partly drawn) [Example 206, 3-(carboxymethoxy)-4-chloro-5-(3-(((4R)-1-((3-(4-(1-(2,6-dioxopiperidin-3-yl)-3-(oxetan-3-yl)-2-oxo-2,3-dihydro-1H-benzo[d]imidazol-5-yl)piperidine-1-carboxamido)benzyl)sulfonyl)-2,2-dimethylpiperidin-4-yl)amino)phenyl)thiophene-2-carboxylic acid] | 50 to 200 | 200 to 1000
